In patent US5488051A, “Substituted 5,6-dihydro-5-oxo-1,4-dithiino-(2,3-d)-pyridazine-2,3-dicarbonitriles, compositions containing them and their use as antimicrobials” (The Dow Chemical Company, priority 1994, dated 1996):
≈ marks a conversion by molar mass, not a printed value. Like-named read-outs stand apart in the source and are kept apart here.

Assays:
[1] = system: Staphylococcus aureus (Sa); assay: MIC for Staphylococcus aureus, nutrient agar; format: cell-based, Staphylococcus aureus ATCC 6538
Method: (§1) The minimum inhibitory concentration (MIC) for the compounds listed in Table I is determined for 9 bacteria, using nutrient agar; and 7 yeast and fungi, using malt yeast agar. A one percent solution of the test compound is prepared in a mixture of acetone and water.
(§2) Nutrient agar is prepared at pH 6.8, representing a neutral medium, and at pH 8.2, representing an alkaline medium. The nutrient agars are prepared by adding 23 g of nutrient agar to one-liter of deionized water. In addition, the alkaline medium is prepared by adjusting a 0.04M solution of N-[tris-(hydroxymethyl)methyl]-glycine buffered deionized water with concentrated sodium hydroxide to a pH of 8.5.
(§3) The test tubes containing the malt yeast agar and the nutrient agar are cooled in a water bath until the temperature of the agar is 48° C. Then, an appropriate amount of the one percent solution of the test compound is added (except in the controls where no compound is added) to the respective test tubes so that the final concentrations are zero (0), 1.0, 2.5, 5, 10, 25, 50, 100, 250 and 500 parts per million of the test compound in each of the respective type of agar. The contents of each of the test tubes are then transferred to separate petri plates. After drying for 24 hours, the petri plates containing nutrient agar are inoculated with bacteria and those containing malt yeast agar are inoculated with yeast and fungi.
(§4) The inoculation with bacteria is accomplished by using the following procedure. Twenty-four hour-cultures of each of the bacteria are prepared by incubating the respective bacteria in tubes containing nutrient broth for 24 hours at 30° C. in a shaker. Dilutions of each of the 24 hour-cultures are made so that nine separate suspensions (one for each of the nine test bacteria) are made, each containing 10^8 colony forming units (CFU) per mL of suspension of a particular bacteria. Aliquots of 0.3 mL of each of the bacterial suspensions are used to fill the individual wells of Steer's Replicator. For each microbial suspension, 0.3 mL was used to fill three wells (i.e., three wells of 0.3 mL each) so that for the nine different bacteria, 27 wells are filled. The Steer's Replicator is then used to inoculate both the neutral and alkaline pH nutrient agar petri plates.
(§5) The inoculated petri plates are incubated at 30° C. for 48 hours and then read to determine if the test compound which is incorporated into the agar prevented growth of the respective bacteria.
(§6) Table II list the bacteria, yeast and fungi used in the MIC test described above along with their respective American Type Culture Collection (ATCC) identification numbers.

[2] = system: Pseudomonas aeruginosa (PRD-10); assay: MIC for Pseudomonas aeruginosa PRD-10, nutrient agar; format: cell-based, Pseudomonas aeruginosa ATCC 15442
Method: as §1, §2, §3, §4, §5, §6

[3] = system: Pseudomonas aeruginosa (Pa); assay: MIC for Pseudomonas aeruginosa, nutrient agar; format: cell-based, Pseudomonas aeruginosa ATCC 10145; conditions: 48 hours, read-out: Minimum Inhibitory Concentration (MIC), Pa
Method: as §1, §2, §3, §4, §5, §6

Fusarium oxysporum (Fo) = assay: MIC for Fusarium oxysporum, malt yeast agar; format: cell-based, Fusarium oxysporum ATCC 48112; conditions: read-out: Minimum Inhibitory Concentration (MIC), Fo
Method: as §1
(§7) Malt yeast agar is prepared by adding 3 g yeast extract and 45 g malt agar per liter of deionized water. The specific agar is dispensed in 30 mL aliquots into 25×200 mm test tubes, capped and autoclaved for 15 minutes at 115° C.
as §3
(§8) The inoculation with the yeast and fungi is accomplished as follows. Cultures of yeast and fungi are incubated for seven days on malt yeast agar at 30° C. These cultures are used to prepare suspensions by the following procedure. A suspension of each organism is prepared by adding 10 mL of sterile saline and 10 microliters of octylphenoxy polyethoxy ethanol to the agar slant of yeast or fungi. The sterile saline/octylphenoxy polyethoxy ethanol solution is then agitated with a sterile swab to suspend the microorganism grown on the slant. Each resulting suspension is diluted into sterile saline (1 part suspension: 9 parts sterile saline). Aliquots of these dilutions are placed in individual wells of Steer's Replicator and petri plates inoculated as previously described. The petri plates are incubated at 30° C. and read after 48 hours for yeast and 72 hours for fungi.
as §6

Trichoderma viride (Tv) = assay: MIC for Trichoderma viride, malt yeast agar; format: cell-based, Trichoderma viride ATCC 8678; conditions: read-out: Minimum Inhibitory Concentration (MIC), Tv
Method: as §1, §7, §3, §8, §6

[4] = system: Aureobasidium pullulan (Ap); assay: MIC for Aureobasidium pullulan, malt yeast agar; format: cell-based, Aureobasidium pullulan ATCC 16622; conditions: read-out: Minimum Inhibitory Concentration (MIC), Ap
Method: as §1, §7, §3, §8, §6

Escherichia coli (Ec) = assay: MIC for Escherichia coli, nutrient agar; format: cell-based, Escherichia coli ATCC 11229
Method: as §1, §2, §3, §4, §5, §6

[5] = system: Klebsiella pneumonias (Kp); assay: MIC for Klebsiella pneumonias, nutrient agar; format: cell-based, Klebsiella pneumonias ATCC 8308
Method: as §1, §2, §3, §4, §5, §6

Candida albicans (Ca) = assay: MIC for Candida albicans, malt yeast agar; format: cell-based, Candida albicans ATCC 10231; conditions: read-out: Minimum Inhibitory Concentration (MIC), Ca
Method: as §1, §7, §3, §8, §6

Proteus vulgaris (Pv) = assay: MIC for Proteus vulgaris, nutrient agar; format: cell-based, Proteus vulgaris ATCC 881
Method: as §1, §2, §3, §4, §5, §6

Bacillus subtilis (Bs) = assay: MIC for Bacillus subtilis, nutrient agar; format: cell-based, Bacillus subtilis ATCC 8473
Method: as §1, §2, §3, §4, §5, §6

Saccharomyces cerevisiae = assay: MIC for Saccharomyces cerevisiae, malt yeast agar; format: cell-based, Saccharomyces cerevisiae ATCC 4105; conditions: read-out: Minimum Inhibitory Concentration (MIC), Sc
Method: as §1, §7, §3, §8, §6

[6] = system: Enterobacter aerogenes (Ea); assay: MIC for Enterobacter aerogenes, nutrient agar; format: cell-based, Enterobacter aerogenes ATCC 13048; conditions: Klebsiella aerogenes
Method: as §1, §2, §3, §4, §5, §6

[7] = system: Penicillium chrysogenum (Pc); assay: MIC for Penicillium chrysogenum, malt yeast agar; format: cell-based, Penicillium chrysogenum ATCC 9480; conditions: read-out: Minimum Inhibitory Concentration (MIC), PC
Method: as §1, §7, §3, §8, §6

Aspergillus niger (An) = assay: MIC for Aspergillus niger, malt yeast agar; format: cell-based, Aspergillus niger ATCC 16404; conditions: read-out: Minimum Inhibitory Concentration (MIC), An
Method: as §1, §7, §3, §8, §6

Salmonella choleraesuis = assay: MIC for Salmonella choleraesuis, nutrient agar; format: cell-based, Salmonella choleraesuis ATCC 10708; conditions: Salmonella enterica
Method: as §1, §2, §3, §4, §5, §6

[8] = malt yeast agar, 30° C., 72 hours for fungi
[9] = malt yeast agar, 30° C., 48 hours for yeast

ClC=CC[N+]12CN3CN(CN(C3)C1)C2.[Cl-] [STANDARD I, 1-(3-chloroallyl)-3,5,7-triaza-1-azoniaadamantane chloride, reference compound]
MIC ([1]; 48 h, pH 6.8, read-out: Minimum Inhibitory Concentration (MIC), Sa): 100 µg/mL
MIC ([1]; 48 h, pH 8.2, read-out: Minimum Inhibitory Concentration (MIC), Sa): 250 µg/mL
MIC ([2]; 48 h, pH 6.8, read-out: Minimum Inhibitory Concentration (MIC), PRD): 100 µg/mL
MIC ([2]; 48 h, pH 8.2, read-out: Minimum Inhibitory Concentration (MIC), PRD): 500 µg/mL
MIC ([3]; pH 6.8, 30° C.): 100 µg/mL
MIC ([3]; pH 8.2, 30° C.): > 500 µg/mL
MIC (Fusarium oxysporum (Fo); 72 h): > 500 µg/mL
MIC (Trichoderma viride (Tv); 72 h): > 500 µg/mL
MIC [4]: > 500 µg/mL
MIC (Escherichia coli (Ec); 48 h, pH 6.8, read-out: Minimum Inhibitory Concentration (MIC), Ec): 100 µg/mL
MIC (Escherichia coli (Ec); 48 h, pH 8.2, read-out: Minimum Inhibitory Concentration (MIC), Ec): 250 µg/mL
MIC ([5]; 48 h, pH 6.8, read-out: Minimum Inhibitory Concentration (MIC), Kp): 50 µg/mL
MIC ([5]; 48 h, pH 8.2, read-out: Minimum Inhibitory Concentration (MIC), Kp): 250 µg/mL
MIC (Candida albicans (Ca); 48 h): > 500 µg/mL
MIC (Proteus vulgaris (Pv); 48 h, pH 6.8, read-out: Minimum Inhibitory Concentration (MIC), Pv): 50 µg/mL
MIC (Proteus vulgaris (Pv); 48 h, pH 8.2, read-out: Minimum Inhibitory Concentration (MIC), Pv): 250 µg/mL
MIC (Bacillus subtilis (Bs); 48 h, pH 6.8, read-out: Minimum Inhibitory Concentration (MIC), Bs): 50 µg/mL
MIC (Bacillus subtilis (Bs); 48 h, pH 8.2, read-out: Minimum Inhibitory Concentration (MIC), Bs): 250 µg/mL
MIC (Saccharomyces cerevisiae; 48 h): 500 µg/mL
MIC ([6]; 48 h, pH 6.8, read-out: Minimum Inhibitory Concentration (MIC), Ea): 100 µg/mL
MIC ([6]; 48 h, pH 8.2, read-out: Minimum Inhibitory Concentration (MIC), Ea): 250 µg/mL
MIC ([7]; 72 h): > 500 µg/mL
MIC (Aspergillus niger (An); 72 h): > 500 µg/mL
MIC (Salmonella choleraesuis; 48 h, pH 6.8, read-out: Minimum Inhibitory Concentration (MIC), SC): 50 µg/mL
MIC (Salmonella choleraesuis; 48 h, pH 8.2, read-out: Minimum Inhibitory Concentration (MIC), SC): 100 µg/mL

Cc1ccc(Cn2ncc3c(c2=O)SC(C#N)=C(C#N)S3)cc1 [K, 5,6-dihydro-6-((4-methylphenyl)methyl)-5-oxo-1,4-dithiino-(2,3-d)-pyridazine-2,3-dicarbonitrile]
MIC ([1]; pH 6.8, nutrient agar, 30° C., 48 hours, read-out: Minimum Inhibitory Concentration (MIC), Sa): > 500 µg/mL
MIC ([1]; pH 8.2, nutrient agar, 30° C., 48 hours, read-out: Minimum Inhibitory Concentration (MIC), Sa): > 500 µg/mL
MIC ([2]; pH 6.8, nutrient agar, 30° C., 48 hours, read-out: Minimum Inhibitory Concentration (MIC), PRD): > 500 µg/mL
MIC ([2]; pH 8.2, nutrient agar, 30° C., 48 hours, read-out: Minimum Inhibitory Concentration (MIC), PRD): > 500 µg/mL
MIC ([3]; pH 6.8, 30° C.): > 500 µg/mL
MIC ([3]; pH 8.2, 30° C.): > 500 µg/mL
MIC (Fusarium oxysporum (Fo); [8]): 25 µg/mL (≈ 73.9 µM)
MIC (Trichoderma viride (Tv); [8]): 25 µg/mL (≈ 73.9 µM)
MIC ([4]; malt yeast agar, 30° C., 48 hours for yeast and 72 hours for fungi): < 10 µg/mL
MIC (Escherichia coli (Ec); pH 6.8, nutrient agar, 30° C., 48 hours, read-out: Minimum Inhibitory Concentration (MIC), Ec): > 500 µg/mL
MIC (Escherichia coli (Ec); pH 8.2, nutrient agar, 30° C., 48 hours, read-out: Minimum Inhibitory Concentration (MIC), Ec): > 500 µg/mL
MIC ([5]; pH 6.8, nutrient agar, 30° C., 48 hours, read-out: Minimum Inhibitory Concentration (MIC), Kp): > 500 µg/mL
MIC ([5]; pH 8.2, nutrient agar, 30° C., 48 hours, read-out: Minimum Inhibitory Concentration (MIC), Kp): > 500 µg/mL
MIC (Candida albicans (Ca); [9]): 25 µg/mL (≈ 73.9 µM)
MIC (Proteus vulgaris (Pv); pH 6.8, nutrient agar, 30° C., 48 hours, read-out: Minimum Inhibitory Concentration (MIC), Pv): 500 µg/mL (≈ 1480 µM)
MIC (Proteus vulgaris (Pv); pH 8.2, nutrient agar, 30° C., 48 hours, read-out: Minimum Inhibitory Concentration (MIC), Pv): > 500 µg/mL
MIC (Bacillus subtilis (Bs); pH 6.8, nutrient agar, 30° C., 48 hours, read-out: Minimum Inhibitory Concentration (MIC), Bs): < 10 µg/mL
MIC (Bacillus subtilis (Bs); pH 8.2, nutrient agar, 30° C., 48 hours, read-out: Minimum Inhibitory Concentration (MIC), Bs): 100 µg/mL (≈ 295 µM)
MIC (Saccharomyces cerevisiae; [9]): 25 µg/mL (≈ 73.9 µM)
MIC ([6]; pH 6.8, nutrient agar, 30° C., 48 hours, read-out: Minimum Inhibitory Concentration (MIC), Ea): > 500 µg/mL
MIC ([6]; pH 8.2, nutrient agar, 30° C., 48 hours, read-out: Minimum Inhibitory Concentration (MIC), Ea): > 500 µg/mL
MIC [7, 8]: 25 µg/mL (≈ 73.9 µM)
MIC (Aspergillus niger (An); [8]): 25 µg/mL (≈ 73.9 µM)
MIC (Salmonella choleraesuis; pH 6.8, nutrient agar, 30° C., 48 hours, read-out: Minimum Inhibitory Concentration (MIC), SC): > 500 µg/mL
MIC (Salmonella choleraesuis; pH 8.2, nutrient agar, 30° C., 48 hours, read-out: Minimum Inhibitory Concentration (MIC), SC): > 500 µg/mL
